Results from the NIST ThermoML archive (doi:10.1016/j.tca.2008.05.002).
± gives the expanded uncertainty stated by the source.

Experiments:
[1] = for molar entropy: 101.33 kPa, Small (less than 1 g) adiabatic calorimetry; for Triple point temperature: Adiabatic calorimetry
[2] = Molar enthalpy of transition or fusion; conditions: Adiabatic calorimetry

CCCCn1cc[n+](C)c1.O=[N+]([O-])[O-] [1-butyl-3-methylimidazolium nitrate]
[1]
Conditions | molar entropy [J/K/mol]
5 K, Crystal 4 | 0.18 ± 0.035
10 K, Crystal 4 | 1.52 ± 0.07
15 K, Crystal 4 | 4.64 ± 0.12
20 K, Crystal 4 | 9.379 ± 0.2
25 K, Crystal 4 | 15.39 ± 0.27
30 K, Crystal 4 | 22.34 ± 0.32
35 K, Crystal 4 | 29.9 ± 0.37
40 K, Crystal 4 | 37.83 ± 0.43
45 K, Crystal 4 | 45.98 ± 0.5
50 K, Crystal 4 | 54.22 ± 0.56
55 K, Crystal 4 | 62.47 ± 0.61
60 K, Crystal 4 | 70.67 ± 0.68
70 K, Crystal 4 | 86.8 ± 0.83
80 K, Crystal 4 | 102.4 ± 0.92
90 K, Crystal 4 | 117.4 ± 1
100 K, Crystal 4 | 131.8 ± 1.1
110 K, Crystal 4 | 145.6 ± 1.2
120 K, Crystal 4 | 158.9 ± 1.2
130 K, Crystal 4 | 171.8 ± 1.3
140 K, Crystal 4 | 184.2 ± 1.4
150 K, Crystal 4 | 196.3 ± 1.5
160 K, Crystal 4 | 208.1 ± 1.6
170 K, Crystal 4 | 219.7 ± 1.6
180 K, Crystal 4 | 231 ± 1.7
190 K, Crystal 4 | 242.1 ± 1.7
200 K, Crystal 4 | 253.1 ± 1.8
210 K, Crystal 4 | 264 ± 1.9
220 K, Crystal 4 | 274.7 ± 1.9
230 K, Crystal 4 | 285.4 ± 2
240 K, Crystal 4 | 296.1 ± 2.1
250 K, Crystal 4 | 306.6 ± 2.2
260 K, Crystal 4 | 317.1 ± 2.2
270 K, Crystal 4 | 327.5 ± 2.2
278.2 K, Crystal 3 | 343.5 ± 2.3
278.2 K, Crystal 4 | 336 ± 2.3
280 K, Crystal 3 | 345.3 ± 2.4
285 K, Crystal 3 | 350.5 ± 2.4
288.1 K, Crystal 2 | 354.9 ± 2.4
288.1 K, Crystal 3 | 353.7 ± 2.4
290 K, Crystal 2 | 356.9 ± 2.4
292.2 K, Crystal 1 | 359.7 ± 2.5
292.2 K, Crystal 2 | 359.2 ± 2.5
295 K, Crystal 1 | 362.6 ± 2.5
298.15 K, Crystal 1 | 365.8 ± 2.5
300 K, Crystal 1 | 367.7 ± 2.5
309.16 K, Crystal 1 | 377.1 ± 2.6
309.16 K, Liquid | 435.3 ± 2.9
310 K, Liquid | 436.3 ± 2.9
320 K, Liquid | 447.7 ± 3
330 K, Liquid | 458.9 ± 3.1
340 K, Liquid | 469.9 ± 3.2
350 K, Liquid | 480.7 ± 3.2
360 K, Liquid | 491.2 ± 3.2
370 K, Liquid | 501.6 ± 3.3

Conditions | Molar enthalpy of transition or fusion, Crystal 1 [kcal/mol] | Molar enthalpy of transition or fusion, Crystal 2 [kcal/mol] | Molar enthalpy of transition or fusion, Crystal 3 [kcal/mol] | Molar enthalpy of transition or fusion, Crystal 4 [kcal/mol] | Triple point temperature, Crystal 1 [K] | Triple point temperature, Crystal 2 [K] | Triple point temperature, Crystal 3 [K] | Triple point temperature, Crystal 4 [K]
[1] | – | – | – | – | 309.16 ± 0.07 | 292.2 ± 0.1 | 288.1 ± 0.1 | 278.8 ± 0.1
[2] | 4.3 ± 0.0502 | 0.0359 ± 0.0239 | 0.086 ± 0.0239 | 0.497 ± 0.0239 | – | – | – | –
